Data reported in article PMC5830979, “Preclinical In Vitro and In Vivo Evaluation of [^18F]FE@SUPPY for Cancer PET Imaging: Limitations of a Xenograft Model for Colorectal Cancer” (Contrast Media & Molecular Imaging, 2018).
Read-outs that look alike come from different tables or passages of the source.

Legend:
hA3AR = molecular target: T1, hA3AR (Homo sapiens, UniProt P0DMS8); assay: Competitive binding assay, hA3AR membranes, [125I]AB-MECA; conditions: read-out: Ki hA3AR, [125I]AB-MECA 0.4 nM, DMSO ≤1%
T1 sequence (P0DMS8 1-318): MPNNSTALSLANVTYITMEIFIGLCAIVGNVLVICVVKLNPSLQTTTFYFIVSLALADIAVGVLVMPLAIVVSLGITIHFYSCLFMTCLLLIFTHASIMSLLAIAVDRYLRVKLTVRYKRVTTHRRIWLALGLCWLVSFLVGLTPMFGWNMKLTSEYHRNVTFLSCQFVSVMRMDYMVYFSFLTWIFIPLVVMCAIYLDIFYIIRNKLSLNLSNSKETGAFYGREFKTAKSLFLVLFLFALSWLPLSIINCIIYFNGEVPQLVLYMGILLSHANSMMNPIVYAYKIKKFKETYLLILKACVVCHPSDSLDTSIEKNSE
Description: (§2) The assay was performed according to the manufacturer's instructions in a final volume of 500 μL. Increasing concentrations of test compounds were added, whereby the concentration of dimethyl sulfoxide (DMSO) in final assay volume remained ≤10% (hA1AR and hA2AAR assay) and ≤1% in the hA3AR assay. Nonspecific binding was determined using 1 μM DPCPX (hA1R assay), 1 μM SCH-442,416 (hA2AR assay), or 10 μM I-AB-MECA (hA3AR assay). Filtration through GF/B filters (Whatman®, presoaked in 0.1% PEI or 0.5% BSA) was performed using a cell harvester (Brandel®), and receptor-bound radioactivity was determined via gamma counting (2480 Wizard^2, PerkinElmer) or liquid scintillation counting (Hidex 300 SL). IC50 fitted binding curves were generated using the GraphPad Software 5.0, and Ki values were calculated using the Cheng-Prusoff equation.

hA1AR = molecular target: T2, hA1AR (Homo sapiens, UniProt P30542); assay: Competitive binding assay, hA1AR membranes, [3H]DPCPX; conditions: for Ki: read-out: Ki hA1AR, [3H]DPCPX […], DMSO up to 10%, n = 3–5 in triplicate
T2 sequence (P30542 1-326): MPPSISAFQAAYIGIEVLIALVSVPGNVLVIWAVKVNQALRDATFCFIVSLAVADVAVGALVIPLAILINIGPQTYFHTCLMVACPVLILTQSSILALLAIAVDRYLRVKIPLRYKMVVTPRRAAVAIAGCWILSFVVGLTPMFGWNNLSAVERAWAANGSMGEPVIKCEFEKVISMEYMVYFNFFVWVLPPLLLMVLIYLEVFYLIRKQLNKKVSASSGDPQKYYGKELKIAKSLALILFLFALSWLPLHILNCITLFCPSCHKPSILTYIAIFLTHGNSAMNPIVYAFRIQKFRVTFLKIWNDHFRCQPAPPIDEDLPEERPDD
Description: as §2

hA2AAR = hA2AAR (Homo sapiens, UniProt P29274); assay: Competitive binding assay, hA2AAR membranes, [3H]CGS21680; conditions: read-out: Ki hA2AAR; [3H]CGS21680 50 nM; DMSO up to 10%; n = 3–5 in triplicate
Description: as §2

HT-29 cells [1] = test system: HT-29 cells; design: method as in PMID 23454010; conditions: 1 µM, A3AR-dependent; cited from earlier work
HCT-116 cells = test system: HCT-116 cells; design: method as in PMID 23454010; conditions: A3AR dependent; cited from earlier work
[2] = Ex vivo blood stability in BALB/c mice; conditions: 70 min after retroorbital injection
Description: Radiosynthesis was performed as described elsewhere and the product was processed as follows: ethanol was totally evaporated and the dry product was again physiologically formulated in 1.5–2 mL Tween-20/EtOH/0.9% saline 1/9/90 to obtain activity concentrations of approximately 1 GBq/mL. Healthy BALB/c mice were injected with 18 ± 2 MBq (molar activity = 70–200 GBq/μmol) retroorbitally and sacrificed after 5, 10, 20, 40, and 70 min (n = 3 for each time point). Blood samples were collected and immediately precipitated using acetonitrile/methanol (10 : 1) and centrifuged (12,000 rpm, 5 min, 4°C). The obtained supernatants were subjected to radio-HPLC as previously described.

[3] = In vitro stability against mouse liver microsomes; assay type: in vitro ADME; conditions: purified mouse liver microsomes, 120 min
Description: (§1) Stability of [^18F]FE@SUPPY was tested against mouse liver microsomes, mouse S9 fraction, and mouse plasma (BD Sciences). Amount of intact tracer (%) was determined after 5, 10, 20, 40, 60, and 120 min using an Agilent series 1100/1200 HPLC system connected to a radioactivity detector (Raytest, Ramona Star) (n = 2 in triplicate). The assay was conducted as previously described for respective rat and human enzymes.

[4] = In vitro stability in mouse plasma; assay type: in vitro ADME; conditions: 120 min incubation at 37°C
Description: as §1

[5] = Ex vivo biodistribution in BALB/c mice; conditions: 70 min after tracer application, n = 3
Description: Ex vivo biodistribution of [^18F]FE@SUPPY was assessed 70 min after tracer application in BALB/c mice. Radioactivity was determined using a gamma counter (2480 Wizard^2, PerkinElmer), organs were wet-weighted, and percentage of injected dose per gram of organ was calculated (%ID/g).

[6] = test system: colorectal carcinoma tissue slices; assay: Autoradiography of human colorectal carcinoma versus healthy colon tissue slices; assay type: binding; conditions: in 5 of 7 regions, two CRC patients, P < 0.05
Description: Colorectal carcinoma tissue and adjacent healthy colon tissue were obtained directly after tumorectomy from two patients after full informed consent and quick-frozen in 2-methylbutane (−40°C). Tissue was sliced into 16 μm slices using a microcryotome (Thermo Scientific Microm HM 560) and stored at −80°C until usage. Depending on the sample size, 3 to 4 different regions were defined and analyzed by means of autoradiography and immunohistochemistry.
Tissue slices were thawed and reconstituted in assay buffer (50 mM Tris-HCl pH 7.4, 100 mM NaCl, 1 mM EDTA, 1% BSA, 1 unit adenosine deaminase/100 mL) for 30 min at RT. Radiosynthesis of [^18F]FE@SUPPY was performed as previously described and the product was physiologically formulated (EtOH/0.9% saline 10/90). Tissue slices were incubated with 50 kBq [^18F]FE@SUPPY (40–200 GBq/μmol) in 100 μL assay buffer for 1 h at RT. Slices were thoroughly washed with ice-cold wash buffer (50 mM Tris-HCl pH 7.4), dried, and exposed to a phosphor screen overnight. The readout of the phosphor storage screen was performed on a Cyclone Phosphor Imager (Perkin Elmer), and data analysis was performed using OptiQuant® Software as previously described. […] Differences among groups (colorectal cancer versus healthy colon) were analyzed using a two-tailed, unpaired Student's t-test with Welch's correction.

[7] = design: method as in PMID 25601336; conditions: rats, after 60 min; cited from earlier work
[8] = In vitro stability against mouse S9 fraction; assay type: in vitro ADME; conditions: mouse liver homogenates (S9 fraction), 120 min
Description: as §1

HT-29 xenografts = assay: µPET imaging of HT-29 / CHO-K1 xenograft-bearing CB17-SCID mice; assay type: in vivo; conditions: µPET 60 min, baseline
Description: After 10 to 14 days upon arrival, CB17-SCID mice were injected subcutaneously with 2 × 10^6 HT-29 cells into one flank and 2 × 10^6 CHO-K1 cells in the opposite flank (n = 9). Body weight and tumor development were monitored every second day by caliper measurement. The respective tumor volume was calculated according to the following equation: tumor volume (mm^3) = d^2 × D/2 (where d is the shortest diameter and D the longest diameter). Animals were subjected to μPET imaging 10 days after inoculation, when tumors reached a volume of at least 300 mm^3. Tumor volume never exceeded 1 cm^3.
Xenograft-bearing CB17-SCID mice were anesthetized using isoflurane (2.5%) mixed with oxygen (1.5 L/min) to avoid movement during the imaging. Blocking agents (2 mg/kg BW FE@SUPPY or MRS1523) or the respective vehicle control (Tween-20/EtOH/0.9% physiological saline 1/9/90) was administered retroorbitally 2 min prior to the radiotracer administration (n = 3 per group). Subsequently, the animals received another retroorbital injection of 17.42 ± 4.5 MBq [^18F]FE@SUPPY into the venous plexus of the opposite eye. With a minor delay after the application of the radiotracer (2-3 min), mice were placed into the field of view of the scanner (μPET/CT Inveon, Siemens Medical Solution, Knoxville, USA), and dynamic imaging was performed for 60 min to follow tracer distribution. Vital parameters (respiration, body temperature) were continuously monitored using a dedicated monitoring unit (bioVet; m2m imaging, Cleveland, OH, USA) to ensure the depth of anesthesia and wellbeing of the animals.

rat A3AR = test system: rat A3AR; design: method as in PMID 25242859; conditions: cited from earlier work
HT-29 cells [9] = test system: HT-29 cells; design: method as in PMID 17488804; conditions: hypoxic conditions, through A3AR stimulation; cited from earlier work

Chain of hA2AAR (P29274 whole entry): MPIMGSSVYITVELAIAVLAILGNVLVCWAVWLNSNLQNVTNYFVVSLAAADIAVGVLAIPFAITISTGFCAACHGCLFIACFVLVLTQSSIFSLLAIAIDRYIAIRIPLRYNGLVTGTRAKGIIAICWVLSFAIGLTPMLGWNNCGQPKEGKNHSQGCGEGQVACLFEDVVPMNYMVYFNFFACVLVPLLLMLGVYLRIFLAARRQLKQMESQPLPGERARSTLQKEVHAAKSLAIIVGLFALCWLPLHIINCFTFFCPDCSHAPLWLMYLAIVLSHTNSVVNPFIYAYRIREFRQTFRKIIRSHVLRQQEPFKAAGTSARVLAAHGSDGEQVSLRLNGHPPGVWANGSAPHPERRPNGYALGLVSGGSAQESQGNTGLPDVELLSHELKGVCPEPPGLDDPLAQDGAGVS

## CCSC(=O)c1c(CC)nc(-c2ccccc2)c(C(=O)O)c1CC [DFE@SUPPY]
hA3AR; n = 3–5 in triplicate
  Ki: 2580 ± 1200 nM
hA1AR; ratio of Ki values
  hA1/hA3AR selectivity ratio: 324
hA1AR
  Ki: 5.46 ± 0.4 µM
hA2AAR
  Ki: 37.1 ± 16 µM

## CCSC(=O)c1c(CC)nc(-c2ccccc2)c(C(=O)OCCF)c1CC [FE@SUPPY]
hA3AR; n = 3
  Ki: 6.02 ± 0.4 nM
hA1AR
  Ki: 4.03 ± 1 µM
hA2AAR
  Ki: 1.72 ± 0.4 µM

## CNC(=O)[C@H]1O[C@@H](n2cnc3c(NCc4cccc(I)c4)ncnc32)[C@H](O)[C@@H]1O [IB-MECA]
HT-29 cells [1]
  effect on cell growth: growth promoting effect
HCT-116 cells
  effect on cells: causes cell apoptosis

## CCSC(=O)c1c(CC)nc(-c2ccccc2)c(C(=O)OCC[18F])c1CC [[^18F]FE@SUPPY, 5-(2-[18F]fluoroethyl) 2,4-diethyl-3-(ethylsulfanylcarbonyl)-6-phenylpyridine-5-carboxylate]
[2]
  intact tracer in blood (ex vivo): 2.2 ± 0.4%
[3]
  intact tracer: 31.4 ± 7.8%
[4]
  intact tracer: 92.6 ± 0.7%
[5]
  accumulation in bile fluid: 162.78 ± 37.51 % ID/g
  accumulation in brain: 0.23 ± 0.03 % ID/g
  accumulation in heart: 1.13 ± 0.04 % ID/g
  accumulation in kidneys: 2.67 ± 0.24 % ID/g
  accumulation in liver: 14.57 ± 0.20 % ID/g
  accumulation in lung: 1.50 ± 0.23 % ID/g
  accumulation in urine: 43.33 ± 9.23 % ID/g
  circulating radioactivity in blood: 1.6 ± 0.1 % ID/g
[6]
  higher binding in colorectal carcinoma versus healthy colon tissue of the same patient: ≥ 2.3 fold
[7]
  intact tracer in plasma: 25.8 ± 5.3%
[8]
  intact tracer: 66.9 ± 6.7%
HT-29 xenografts; CB17-SCID mice
  SUV CHO-K1 xenograft tumor (hA3AR negative control): 0.25 ± 0.33
  SUV HT-29 xenograft tumor: 0.23 ± 0.06
  SUV bile fluid: 21.85 ± 10.63
  SUV blood: 1.21 ± 0.11
  SUV urine: 8.86 ± 3.44
HT-29 xenografts; xenograft-bearing CB17-SCID mice
  SUV liver: 6.68 ± 0.80

## Nc1ncnc2c1ncn2[C@@H]1O[C@H](CO)[C@@H](O)[C@H]1O [adenosine]
Rat A3AR
  affinity for the A3AR: ~ 1 µM

## Cn1c(=O)c2c(ncn2C)n(C)c1=O [caffeine]
HT-29 cells [9]
  effect on HIF-1 protein and VEGF expression: leads to hypoxia-inducible factor-1 (HIF-1) protein accumulation and increased vascular endothelial growth factor (VEGF) expression
